Common to all, as to assay type: cell-based, human
Data set [1] relates to AR. Put plainly: ARE-Luc (AR-dependent luciferase) reporter activity in CaP cells in CSS medium with DHT.
The next data set relates to Hela cells. Put plainly: Growth of AR-negative Hela cells with DHT (data not shown).
The subject of data set [2] is AR. Put plainly: AR protein level in cells transduced with AR-lentivirus, CSS medium with or without DHT (Western blotting). Particulars: DHT-containing media vs CSS without DHT. How it is done:
(§1) Cells were plated in 6 well plates at 10^5/well. The next day, cells were transduced with concentrated GFP or AR lentiviruses, yielding 50-100% transduction efficiency. […] The medium was changed every 48 h. Cells were collected for Western blotting and luciferase assays at different time points or fixed and stained with methylene blue on day 8 after transduction.
(§2) The growth of cells overexpressing AR, cultured in CSS with no DHT, was not different from GFP expressing cells. Thus, this growth reflects the general sensitivity of certain type of cells to the presence of steroids in medium (FIG. 13A).
A general note: In western blotting, separated proteins are transferred to a membrane and probed.

For another data set, the system named is CWR22R cells. Put plainly: Cell growth by methylene blue staining in CSS medium with DHT, CWR22R. Particulars: 10 nM DHT.
In the next data set the test system is p21. Put plainly: p21 protein level in lysates of LNCaP cells treated with DHT. Particulars: 1 nM and 10 nM DHT compared to 0 nM, 0.1 nm DHT or FBS. The source says:
Thus increased activity of AR due to its overexpression or hyper-stimulation with ligand inhibits cell growth, possibly due to induction of p21.

For the next data set, the system named is AR overexpressing cells. Description: Growth of cells transduced with AR lentivirus in CSS with or without DHT. The settings on record: 0.3 nM DHT. How it is done:
as §1, §2

The next data set deals with proteasomes. Put plainly: AR protein level in HeLa cell variants treated with proteasome inhibitor PS341.
The subject of data set [3] is AR mRNA. Description: ARE-Luc reporter cotransfection with anti-AR shRNA constructs. Particulars: for ARE-Luc reporter activity: C4-2 cells, control shRNAs against GFP or FasL; for ARE-Luc reporter activity on endogenous AR: LNCaP cells, 48 h, control shGFP, shFasL. The source says: Based on what was known from clinical oncology and AR mutation databases we hypothesized that complete inhibition of AR function would be toxic for both androgen-dependent and androgen-refractory prostate cancer cells, because prostate cancer cells very rarely lose AR signaling during cancer progression. To completely block AR activity in these cells we used an RNAi approach (FIG. 11). We synthesized several shRNA constructs targeting different portions of AR mRNA using a loop model (see Example 4 above).
Reporter assays were performed by transiently transfecting cells with pARE-Luc plasmid and pcDNA-3.1 hygro plasmids (empty or AR), or plasmids with shRNAs in different proportions. Transfection efficiency was normalized by citransfection of pCMV-LacZ plasmid or pEGFP-mito (Clontech). Reporter activity was measured using a Luciferase Assay System (Promega) at 48 h.

Data set [4] deals with CaP cells expressing endogenous AR. Description: Growth after retroviral anti-AR shRNA transduction and hygromycin selection, CaP cells expressing endogenous AR. Particulars: retroviral vector, hygromycin selection; for growth of CaP cells expressing endogenous AR: all tested CaP cells, control anti-GFP. The source says:
(§3) We confirmed that inhibition of AR signaling is growth suppressive for androgen-insensitive versions of CaP (FIG. 5). Based on what is known from clinical oncology and AR mutation databases, we hypothesized that complete inhibition of AR function would be deleterious for both androgen-dependent and androgen refractory prostate cancer cells since CaP cells very rarely loose AR signaling during progression. To estimate the dependency of prostate cancer cells on the expression of AR, we transduced them with retroviral vector expressing anti-AR siRNA with subsequent selection on hygromycin. Control cells were transduced with anti-GFP siRNA vector. Transduction efficiency was estimated in AR-negative cells, DU145.
We also estimated the dependency of prostate cancer cells on the expression of AR by transducing cells with a retroviral vector expressing anti-AR shRNA, followed by selection on hygromycin (FIG. 12). Control cells were transduced with anti-GFP shRNA vector; transduction efficiency was estimated on AR negative cells (DU145) transduced with the same viruses.
For the experiments in FIG. 12, retroviral packaging and transduction were performed as follows. Briefly, Ampho cells (Clontech) were transfected with retroviral expression vector. Medium with virus was collected at 48 h and immediately transferred onto the target cells. 8 μg/ml of polybrene (Sigma) was added to transduced cells. 24 h later, the medium was changed with fresh medium containing the appropriate antibiotic for selecting transduced cells. 10-14 days later, after complete death of control untransduced cells, the number of colonies was quantified, or cells were used for further experiments. Retroviral shRNA vectors were generated by inserting the H1 promoter and a cassette for cloning of shRNA into the right LTR of pLPCHygro plasmid (Clontech).
For the experiment in FIG. 12B, the number of colonies on each plate was counted and divided by number of colonies of AR-negative DU145 cells. The number of colonies of cells transduced with shRNA against GFP was set as 1. DU145 cells were obtained from ATCC.

The test system of the next data set is LNCaP cells. Put plainly: Growth after retroviral anti-AR shRNA transduction and hygromycin selection, LNCaP. Particulars: retroviral vector, hygromycin selection, control anti-GFP.
From the text: as §3
(§4) We also estimated the dependency of prostate cancer cells on the expression of AR by transducing cells with a retroviral vector expressing anti-AR shRNA, followed by selection on hygromycin (FIG. 12). […]
(§5) For the experiments in FIG. 12, retroviral packaging and transduction were performed as follows. […] 10-14 days later, after complete death of control untransduced cells, the number of colonies was quantified, or cells were used for further experiments. […]
(§6) For the experiment in FIG. 12B, the number of colonies on each plate was counted and divided by number of colonies of AR-negative DU145 cells. […]

The subject of a further data set is C4-2 cells. Put plainly: Growth after retroviral anti-AR shRNA transduction and hygromycin selection, C4-2. The settings on record: retroviral vector, hygromycin selection, control anti-GFP.
From the text: as §3, §4, §5, §6

For data set [5], the system named is AR mRNA. Description: ARE-Luc activity with siRNAs against translated and untranslated regions of AR mRNA. The settings on record: C4-2 cells, endogenous AR. The source says:
We next eliminated expression of the endogenous ligand-dependent AR in a way that would not affect the expression of the ARΔLBD mutant. To achieve this, we generated a series of lentiviral vectors expressing siRNA's against untranslated regions of AR mRNA that are missing in the generated ARΔLBD-expressing constructs. We tested their activity in C4-2 prostate cancer cells that have endogenous AR and in H1299 cells expressing only exogenous AR from the transduced construct. While all siRNA's against translated and untranslated regions of AR were active in inhibition of ARE-Luc activity in C4-2 cells, only siRNA's against translated regions were active in H1299 cells (FIG. 6).

The next data set has as its system endogenous AR. Put plainly: Knock down of endogenous AR in CaP cells infected with lentiviral siAR6 and ARΔLBD. Particulars: simultaneous infection with siAR6 and ARΔLBD lentiviral vectors. The source says:
To generate completely ligand independent CaP cells, we simultaneously infected cells with lentiviral vectors expressing siAR6 and ARΔLBD.

The values that follow come from patent US20100286229A1, “Modulation of Androgen Receptor for Treatment of Prostate Cancer” (priority 2005, published 2010).

Entries after “also recorded” stand apart in the source; their conditions may differ.

On to `C[C@]12CCC(=O)C[C@@H]1CC[C@@H]1[C@@H]2CC[C@]2(C)[C@@H](O)CC[C@@H]12` [DHT, dehydrotestosterone], for which the “reporter induction by DHT” value in the data set on AR [1] (CWR22R and 22Rv1 cells) is “up to 3.5 fold”. Further, the “ARE-Luc reporter activation by DHT” value with AR [1] (CWR22R cells with shAR and ARDLBD) is recorded as “do not respond”. Besides, the “reporter response to addition of DHT” value in the data set with AR [1] (LNCaP, C4-2 and CWR22R cells, CSS containing 0-10 nm DHT) was “reporter activation”. For the same compound, in the data set with Hela cells, the “growth in response to DHT” value is reported as “not affected”. Moreover, in the data set on AR [2], the “AR levels in cells transduced with AR-lentivirus” value is listed as “reduced AR levels to those observed prior transduction”. The “growth at high doses of DHT” value in the data set on CWR22R cells is “minor growth suppressing effect”. For the same compound, the “level of p21” value with p21 is on record as “higher”. Moreover, the “growth of AR overexpressing cells compared to GFP expressing control” value in the data set on AR overexpressing cells is “suppression of growth”.
Turning to `CC(C)C[C@H](NC(=O)[C@H](Cc1ccccc1)NC(=O)c1cnccn1)B(O)O` [PS341], the ARΔLBD protein level entry in the data set on proteasomes (HeLa cells with ARΔLBD) is on record as “remained unchanged”. The wtAR protein level result with proteasomes (HeLa cells with wtAR) is listed as “increased; also recorded: accumulation of wild type AR protein”.
For the compound “AR1: siRNA/shRNA against AR, sequence GCTCAAGGATGGAAGTGCA, SEQ ID NO 3, target 1108-1126 (listed as DNA, chemistry not given here)”, the ARE-Luc reporter activity entry in the data set with AR mRNA [3] is listed as “inhibit ARE-Luc reporter activity”. The entries for the “ARE-Luc reporter activity on endogenous AR” value in the data set on AR mRNA [3] and in the data set with AR mRNA [3] (listed as shAR1) were “inhibit ARE-Luc reporter activity” and “maximal activity”, respectively. In data set [4], the “growth of CaP cells expressing endogenous AR” value is “growth inhibitory effect; also recorded: inhibits growth”. In addition, the cell growth entry in the data set with LNCaP cells and in the data set with C4-2 cells was “inhibited the growth” throughout.
Consider “AR2: siRNA/shRNA against AR, sequence GCTGCTCCGCTGACCTTAA, SEQ ID NO 4, target 1642-1660 (listed as DNA, chemistry not given here)”, for which, in the data set with AR mRNA [3], the ARE-Luc reporter activity result is given as “inhibit ARE-Luc reporter activity” and the “ARE-Luc reporter activity on endogenous AR” value is given as “inhibit ARE-Luc reporter activity”. Further, the “ARE-Luc reporter activity on endogenous AR” value in the data set on AR mRNA [3] (listed as shAR2) is given as “did not completely block AR transcription”. The “growth of CaP cells expressing endogenous AR” value in data set [4] is on record as “no inhibitory activity”.
As for “AR3: siRNA/shRNA against AR, sequence TCTCTGTGCAAGTGCCCAA, SEQ ID NO 5, target 3814-3832 (listed as DNA, chemistry not given here)”, in the data set on AR mRNA [3], the ARE-Luc reporter activity entry is “inhibit ARE-Luc reporter activity” and the “ARE-Luc reporter activity on endogenous AR” value is “inhibit ARE-Luc reporter activity”. Moreover, the “ARE-Luc reporter activity on endogenous AR” value in the data set with AR mRNA [3] (listed as shAR3) is listed as “did not completely block AR transcription”. Moreover, in [4], the “growth of CaP cells expressing endogenous AR” value was “no inhibitory activity” and the “growth-inducing property on AR expressing CaP cells” value is “some growth-inducing property”.
As for “AR6: siRNA against untranslated region of AR mRNA, sequence GTCAGGTCTTCAGTAGCCA, SEQ ID NO 6, target 688-706 (listed as DNA, chemistry not given here)”, in the data set with AR mRNA [5], the “inhibition of ARE-Luc activity” value is listed as “most effective”. In the data set on endogenous AR, the “knock down of endogenous AR” value is reported as “nearly complete knock down of endogenous AR”.
